These results are taken from doi:10.1101/2024.12.09.627564, “Cannabinoid inhibition of mechanosensitive K^+ channels” (bioRxiv, 2024).

Numbering of substitutions follows the chain as printed. Where two headings read alike, the source gives them in different places.

Assay [1] has as its target T1, TRAAKA198E (Homo sapiens, UniProt Q9NYG8, A172E).
T1 construct: The transcribed messages encode H. sapiens TRAAK amino acids 1–393; expressed in transfected cells; host or cells: Xenopus laevis oocytes, cRNA injection
T1 sequence (Q9NYG8 1-393 A172E): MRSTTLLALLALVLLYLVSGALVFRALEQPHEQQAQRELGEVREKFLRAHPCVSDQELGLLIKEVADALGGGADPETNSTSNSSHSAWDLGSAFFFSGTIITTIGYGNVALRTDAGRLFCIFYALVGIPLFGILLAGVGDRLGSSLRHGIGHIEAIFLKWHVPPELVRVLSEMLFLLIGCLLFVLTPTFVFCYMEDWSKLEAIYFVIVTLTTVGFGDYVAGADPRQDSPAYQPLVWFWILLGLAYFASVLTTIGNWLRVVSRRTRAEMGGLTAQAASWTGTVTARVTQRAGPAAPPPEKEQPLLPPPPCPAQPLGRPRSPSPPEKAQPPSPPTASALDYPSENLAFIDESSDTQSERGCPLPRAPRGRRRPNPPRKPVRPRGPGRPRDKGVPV
As to the kind of experiment: Excised patch recording of TRAAK mutant A198E. The format is biochemical. An excerpt:
For patch clamp recording from Xenopus oocytes, genes encoding full-length Homo sapiens TRAAK (UniProt Q9NYG8–2), TREK-1 (UniProt O95069), and TREK-2 (UniProt P57789) were codon optimized for eukaryotic expression, synthesized (Genewiz), and cloned into a modified pGEMHE vector using Xho1 and EcoR1 restriction sites. The transcribed messages encode H. sapiens TRAAK amino acids 1–393, TREK-1 amino acids 1–426, or TREK-2 amino acids 1–538 with an additional three amino acids (SNS) at the C terminus. TRAAK mutants were introduced by polymerase chain reaction (PCR). Linearized DNA was transcribed in vitro using T7 polymerase. Complementary RNA (0.1 to 10 ng for TRAAK, TREK-1, TREK-2, and mutants) in 50 nL H2O was injected into Xenopus laevis oocytes extracted from anesthetized frogs. Currents were recorded at 25 °C from inside-out patches excised from oocytes 1 to 5 d after RNA injection. […]
Patches were evaluated with voltage-step protocols to confirm TRAAK expression and minimal non-specific leak based on reversal potential. Currents were recorded using an Axopatch 200B amplifier (Molecular Devices) at a bandwidth of 1 kHz and digitized with an Digidata 1550B (Molecular Devices) at 100–500 kHz using pClamp10.7 software. […] In an effort to minimize variability associated with differences in resting membrane tension, we targeted patches with low basal curvature and low resting channel activity and ensured measured pressure difference across the patch was as close to zero as possible at rest to prevent mechanical activation of channels. Data were analyzed using Clampfit 10.7, Excel, and Graphpad Prism software. […]
To avoid cannabinoid absorption to plastic, cannabinoid solutions were made in glass vials and diluted by weight, perfusion was performed using glass tubing pulled from borosilicate glass Pasteur pipettes (Fisherbrand, Cat# 13–678-20C), and recordings were performed in glass chambers. Channel activity was continuously recorded during perfusion steps. […]

For assay [2], the system named is voltage-gated sodium channels. The conditions noted are these: cited from earlier work.
The subject of assay [3] is Kv7.2/7.3. More on the design: method as in PMID 35179483, PMID 37857637. The conditions noted are these: activation; cited from earlier work.
Assay [4] has as its system TRPV1–4. Also noted: method as in PMID 30697147, PMID 31566564. Conditions: activation; cited from earlier work.
Details of assay [5]: method as in PMID 32804502. The conditions noted are these: slice recordings; cited from earlier work.
The target of assay [6] is T2, Homo sapiens TRAAK (Homo sapiens, UniProt Q9NYG8).
T2 construct: The transcribed messages encode H. sapiens TRAAK amino acids 1–393; expressed in transfected cells; host or cells: Xenopus laevis oocytes, cRNA injection
T2 sequence (Q9NYG8 1-393): T1 sequence (Q9NYG8 1-393 A172E) with E172A
Description: Excised inside-out patch recording of TRAAK from Xenopus oocytes. It is filed as biochemical. The conditions noted are these: for inhibition at 1 µM: 1 μM CBD, read-out: percent inhibition. An excerpt: For patch clamp recording from Xenopus oocytes, genes encoding full-length Homo sapiens TRAAK (UniProt Q9NYG8–2), TREK-1 (UniProt O95069), and TREK-2 (UniProt P57789) were codon optimized for eukaryotic expression, synthesized (Genewiz), and cloned into a modified pGEMHE vector using Xho1 and EcoR1 restriction sites. The transcribed messages encode H. sapiens TRAAK amino acids 1–393, TREK-1 amino acids 1–426, or TREK-2 amino acids 1–538 with an additional three amino acids (SNS) at the C terminus. TRAAK mutants were introduced by polymerase chain reaction (PCR). Linearized DNA was transcribed in vitro using T7 polymerase. Complementary RNA (0.1 to 10 ng for TRAAK, TREK-1, TREK-2, and mutants) in 50 nL H2O was injected into Xenopus laevis oocytes extracted from anesthetized frogs. Currents were recorded at 25 °C from inside-out patches excised from oocytes 1 to 5 d after RNA injection. The pipette solution contained 15 mM KCl, 135 mM NaCl, 2 mM MgCl2, and 10 mM HEPES (pH = 7.4 with KOH) and the bath solution contained 150 mM KCl and 10 mM HEPES (pH = 7.1 with KOH). Borosilicate glass pipettes were pulled to 2–5 MΩ resistance.
Patches were evaluated with voltage-step protocols to confirm TRAAK expression and minimal non-specific leak based on reversal potential. Currents were recorded using an Axopatch 200B amplifier (Molecular Devices) at a bandwidth of 1 kHz and digitized with an Digidata 1550B (Molecular Devices) at 100–500 kHz using pClamp10.7 software. Pressure was applied with a second-generation high-speed pressure clamp device (HSPC-2-SB, ALA Scientific Instruments). Aggregated data were from patches from n ≥ 2 different cells on different days. No relevant differences were observed between patches from different cells. In an effort to minimize variability associated with differences in resting membrane tension, we targeted patches with low basal curvature and low resting channel activity and ensured measured pressure difference across the patch was as close to zero as possible at rest to prevent mechanical activation of channels. Data were analyzed using Clampfit 10.7, Excel, and Graphpad Prism software. For voltage families, the data were decimated 100x and plotted in Prism. Statistical analysis was conducted with Dunnett’s multiple comparisons test after an ordinary one-way ANOVA using Prism software.
To avoid cannabinoid absorption to plastic, cannabinoid solutions were made in glass vials and diluted by weight, perfusion was performed using glass tubing pulled from borosilicate glass Pasteur pipettes (Fisherbrand, Cat# 13–678-20C), and recordings were performed in glass chambers. Channel activity was continuously recorded during perfusion steps. Patches were exposed to each cannabinoid concentration until a stable current level was reached (0.5–2 minutes). CBD (Cayman Chemical cat#90080) was prepared as a 10mM stock solution in DMSO, CBN (Cayman Chemical cat#25495) was prepared as a 80mM stock solution in DMSO, CBDV (Phytolab Cat#85955) was prepared as a 10mM stock solution in DMSO, and CBDP (Cayman Chemical cat#33611) was purchased as a 2.9 mM stock solution in methanol. Cannabinoids were serially diluted in bath solution to achieve working concentrations of 50 μM to 10 nM. Bath volume in the recording chamber was minimized by suction and drug-containing solutions were delivered three times to ensure establishment of desired concentration in the recording chamber. Cannabinoids were applied from low to high concentration. The recording chamber and perfusion system were washed extensively with methanol after every trial.
The effects of cannabinoids on channel activity were quantified by the reduction in channel current evoked at 0 mV during a gap-free recording or during 200 ms long voltage families with steps ranging from −100 to +100 mV. Currents were normalized to those prior to cannabinoid application to facilitate comparisons across different patches and cells. […]

In assay [7] the test system is BK. More on the design: method as in PMID 38708937. Conditions: inhibition; cited from earlier work.

For the compound `C=C(C)[C@@H]1CCC(C)=C[C@H]1c1c(O)cc(CCCCC)cc1O` [CBD, Cannabidiol], the half-inhibitory concentration (IC50) in assay [1] is 496 ± 26 nM; in assay [2], 2000 to 10000 nM; in assay [6], approximately 145 nM; in assay [7] it was 280 nM. Also, in assay [1] (10 μM CBD), the “inhibition of channel activity at high concentration” value is “fully inhibited”. Besides, in assay [1] (A198E vs wild-type), the “fold less sensitive than wild-type TRAAK” value is on record as ~ 4 fold. The concentration giving a half-maximal response (EC50) in assay [3] was 200 nM; in assay [4], 1000 to 4000 nM. In addition, the “concentration at which antiepileptic effects are observed” value in assay [5] was not above 100 nM. For the same compound, the inhibition at 1 µM in assay [6] (after mβCD treatment (high membrane tension)) is 43 ± 13%; in assay [6] (prior to mβCD treatment), 91 ± 3%. For the same compound, in assay [6] (0.5, 1 and 10 μM CBD), the “effect on mechanical activation of TRAAK by negative pressure steps” value is “more negative pressure was required to activate TRAAK to the same degree”. The Hill-coefficient in assay [6] (TRAAK dose-response) is 1.3. Also, the “fold higher affinity than RU-TRAAK-1 and −2” value in assay [6] (TRAAK inhibitors) is 3–5 fold. Moreover, in assay [6] (TRAAK, excised patches), the “concentration at which effects are evident” value fell in the range of 1 to 10 nM. The “concentration of full inhibition” value in assay [6] (TRAAK, excised patches) is ~ 1 μM. In addition, the “fold higher concentration required for similar inhibition after mβCD treatment” value in assay [6] (after vs prior to mβCD treatment) is recorded as “Approximately 10 fold”. The “fold higher affinity than ruthenium red and TKDC” value in assay [6] (nonspecific TRAAK inhibitors) is reported as “greater than 10 fold”.

A word on the IC50: it is the concentration that inhibits the measured activity by half. As a reminder, the EC50 is the concentration at which the effect is half-maximal. The term inhibition denotes the change of the read-out against control, counted positive when it falls.
